BindingDB's records for doi:10.1124/jpet.104.079301 (University of Li&Eagrove;Ge, 2005)

Biological target: Thromboxane A2 receptor (Homo sapiens, UniProt P21731)
Sequence (P21731 as listed by the source): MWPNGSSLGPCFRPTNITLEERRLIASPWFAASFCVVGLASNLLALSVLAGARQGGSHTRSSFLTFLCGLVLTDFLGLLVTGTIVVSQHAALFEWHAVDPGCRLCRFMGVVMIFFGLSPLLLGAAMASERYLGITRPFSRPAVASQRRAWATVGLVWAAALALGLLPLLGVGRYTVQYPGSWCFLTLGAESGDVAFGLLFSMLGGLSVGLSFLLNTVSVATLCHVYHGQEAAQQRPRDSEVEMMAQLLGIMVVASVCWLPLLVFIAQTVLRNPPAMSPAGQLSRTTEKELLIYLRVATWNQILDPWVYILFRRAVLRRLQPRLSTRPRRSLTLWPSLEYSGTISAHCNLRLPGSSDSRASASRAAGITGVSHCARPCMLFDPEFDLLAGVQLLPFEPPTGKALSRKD

With `CCCCCNC(=O)NS(=O)(=O)c1cc([N+](=O)[O-])ccc1Nc1ccc(C)cc1` the Ki was 3.1 nM.
Work on `Cc1ccc(Nc2ccc([N+](=O)[O-])cc2S(=O)(=O)NC(=O)NC(C)(C)C)cc1` [BM 573] yielded a Ki of 0.8 nM.
